In patent US12522597B2, “Methods and compositions for modulating splicing” (Skyhawk Therapeutics, Inc., priority 2019, dated 2026):

Tests used:
[1] = test system: mHTT protein; assay: mHTT protein assay (2B7-MW1, Mesoscale Discovery); type: cell-based, human; conditions: GM04724 (CAG 70/20) Huntington's disease patient lymphoblast cells, 48 hours, 2B7-MW1 MSD; read-out: HTT Potency - Protein EC50 mHTT (average)
Protocol: Compounds are tested on GM04724 (CAG 70/20) Huntington's disease patient lymphoblast cells at doses ranging from 10 μM to 0.6 nM. 4,500 cells/well are seeded in 384 well plates. One plate replica is carried out for parallel viability testing by CellTiter Glo (CTG). Compounds are incubated for 48 hours, mHTT protein levels are assessed by the 2B7-MW1 assay via Mesoscale Discovery (MSD) as previously reported (Macdonald et al., 2014). The antibody pair is comprised of previously characterized monoclonals (2B7 and MW1) interrogating two regions for HTT conformation and biological properties: the N17 domain and the polyQ domain (Baldo et al., 2012; Ko et., 2001). 2B7-MW1 is dependent on subject/animal specific levels of HTT at the time of treatment. 2B7-MW1 is dependent on polyQ expansion (e.g., the higher the expansion the higher the signal) and on mHTT size (e.g., a similar polyQ will give higher signal with smaller HTT size). The viability readout is carried out by CTG according to the manufacturer's instructions.

[2] = test system: MDR1-MDCK cell monolayers; assay: MDCK-MDR1 permeability assay (BBB penetration potential); type: in vitro ADME; conditions: dog, MDCK-MDR1, 120 min, 5 μM, pH 7.4
Protocol: (§1) Each determination is performed in duplicate. […] Analytical conditions are outlined below.

[3] = test system: MDR1; assay: as above; type: in vitro ADME; conditions: dog; for efflux ratio at 120 min, 5 μM: MDCK-MDR1, pH 7.4, MDCK-MDR1: Efflux; for Papp A→B at 120 min, 5 μM: MDCK-MDR1, pH 7.4, MDCK-MDR1: Papp A-B; for Papp B→A at 120 min, 5 μM: MDCK-MDR1, pH 7.4, MDCK-MDR1: Papp B-A
Protocol: as §1

SMILES | EC50 [1] [nM] | MDCK-MDR1: % Recov A-B [2] [%] | MDCK-MDR1: % Recov B-A [2] [%] | efflux ratio at 120 min, 5 μM [3] | Papp A→B at 120 min, 5 μM [3] [×10⁻⁶ cm/s] | Papp B→A at 120 min, 5 μM [3] [×10⁻⁶ cm/s]
Cc1cc(-c2ccc(-c3ccc(O[C@H]4C[C@@H]5CCC[C@@H](N5)[C@H]4F)nn3)c(O)c2)ccn1 (single isomer, unassigned) [88-ENT2] | 16 to 50 | 51 | 71 | 4 | 5.13 | 21.5
Oc1cc2cnccc2cc1-c1ccc(O[C@H]2C[C@@H]3CCC[C@@H](N3)[C@H]2F)nn1 (single isomer, unassigned) [80-ENT2] | 501 to 10000 | 72 | 84 | 3 | 9.2 | 32.1
Cn1cc(-c2cc(O)c(-c3ccc(O[C@@H]4CC5CC[C@H](N5)[C@@H]4F)nn3)cn2)cn1 (single isomer, unassigned) [63-ENT1] | 501 to 10000 | 103 | 110 | 37 | 0.29 | 10.9
Cc1ccc(-c2ccc(-c3ccc(O[C@H]4C[C@@H]5CCC[C@@H](N5)[C@H]4F)nn3)c(O)c2)cn1 (single isomer, unassigned) [67-ENT2] | 101 to 500 | 59 | 76 | 6 | 3.34 | 20.7
Oc1cc(-n2ncc3ccccc32)ccc1-c1ccc(O[C@H]2C[C@@H]3CC[C@@H](N3)[C@H]2F)nn1 (single isomer, unassigned) [114-ENT2] | 501 to 10000 | 18 | 42 | 4 | 3.86 | 15.1
Cn1cc(-c2cc(O)c(-c3ccc(O[C@H]4C[C@@H]5CCC(N5)[C@H]4F)nn3)cn2)cn1 (single isomer, unassigned) [63-ENT2] | 501 to 10000 | 96 | 107 | 38 | 0.26 | 9.6
Cc1cncc(-c2ccc(-c3ccc(O[C@H]4C[C@@H]5CCC[C@@H](N5)[C@H]4F)nn3)c(O)c2)c1 (single isomer, unassigned) [89-ENT2] | 501 to 10000 | 55 | 70 | 13 | 2.61 | 34
Oc1cc(-c2ccc3nncn3c2)ccc1-c1ccc(O[C@H]2C[C@@H]3CCC[C@@H](N3)[C@H]2F)nn1 (single isomer, unassigned) [73-ENT2] | 101 to 500 | 90 | 87 | 84 | 0.49 | 41.3
Oc1cc(-n2ccnc2)ccc1-c1ccc(O[C@H]2C[C@@H]3CC[C@@H](N3)[C@H]2F)nn1 (single isomer, unassigned) [36-ENT2] | 51 to 100 | 61 | 73 | 5 | 5.41 | 28.9
Oc1cc2cccnc2cc1-c1ccc(O[C@@H]2C[C@H]3CCC[C@H](N3)[C@@H]2F)nn1 (single isomer, unassigned) [105-ENT1] | 101 to 500 | 92 | 84 | 6 | 8.12 | 47.1
N#Cc1ccc(-c2ccc(O[C@@H]3C[C@H]4CC[C@H](N4)[C@@H]3F)nn2)c(O)c1 (single isomer, unassigned) [111-ENT1] | 501 to 10000 | 90 | 92 | 3 | 15.6 | 44.7
Oc1cc(-c2nncs2)ccc1-c1ccc(O[C@H]2C[C@@H]3CC[C@@H](N3)[C@H]2F)nn1 (single isomer, unassigned) [141-ENT1] | 101 to 500 | 111 | 120 | 6 | 9.97 | 59.7
Cn1cc(-c2ccc(-c3ccc(O[C@@H]4C[C@H]5CCC[C@H](N5)[C@@H]4F)nn3)c(O)c2)c(F)n1 (single isomer, unassigned) [109-ENT1] | 16 to 50 | 57 | 76 | 3 | 5.54 | 18.9
